The values that follow come from patent publication US20230265151A1, “GIP/GLP1 CO-AGONIST COMPOUNDS” (priority 2020, published 2023).

One assay addresses T1, hGCGR (Homo sapiens, UniProt P47871).
T1 construct: expressed in transfected cells
Put plainly: Functional cAMP formation (HTRF) in HEK-293 clonal cells expressing hGCGR, 0.1% bovine casein, without or with 1.0% human serum albumin. The class given is cell-based. The note with it: geometric mean. An outline of the steps: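 Readings of the HTRF 665/620 nm ratio, which falls as cAMP rises, were converted to nM cAMP using a standard curve after 30 min peptide exposure at 37° C.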
(cAMP levels reflect the balance of adenylyl cyclase and phosphodiesterase activity.)

The next assay concerns the target hGLP-1R (Homo sapiens, UniProt P43220). Put plainly: Functional cAMP formation (HTRF) in HEK-293 clonal cells expressing hGLP-1R, 0.1% bovine casein, without or with 1.0% human serum albumin. Conditions: for Emax: 37° C.; for EC50: cAMP, incubated at 37° C., 0.1% bovine casein (no human serum albumin), geometric mean. The class given is cell-based. Set-up: expressed in transfected cells. The protocol:
After a 30-min incubation at 37° C., the resulting increase in intracellular cAMP is quantitatively determined using a CisBio cAMP Dynamic 2 HTRF Assay Kit (62AM4PEJ). Briefly, cAMP levels within the cell are detected by adding the cAMP-d2 conjugate in cell lysis buffer (10 µL) followed by the antibody anti-cAMP-Eu^3+-Cryptate, also in cell lysis buffer (10 µL). The resulting competitive assay is incubated for at least 60 min at room temperature, and then is detected using a PerkinElmer Envision® instrument with excitation at 320 nm and emission at 665 nm and 620 nm. Envision units (emission at 665 nm/620 nm* 10,000) are inversely proportional to the amount of cAMP present and are converted to nM cAMP per well us-ing a cAMP standard curve. […] A relative EC50 value and percent top (Emax) are derived by non-linear regression analysis using the percent maximal response vs. the concentration of peptide added, fitted to a four-parameter logistic equation.

The mark [1] stands for this setting: cAMP, incubated at 37° C., 0.1% bovine casein (no human serum albumin), read-out: hGCGR EC50, nM (SEM, n).
Setting [2] is: HEK293, percent of maximal response to GLP-1(7-36)NH2, 0.1% bovine casein, arithmetic mean, read-out: hGLP-1R Emax, % ± SEM.
[3] abbreviates: read-out: hGLP-1R EC50, nM (SEM, n).
Where [4] appears, read: hGCGR EC50, nM (SEM, n), cAMP, incubated at 37° C., 0.1% bovine casein (no human serum albumin).

Read-outs that look alike come from different tables or passages of the source. Where only a bound is given, the exact number is not on record here.

hGLP-1R, sequence (P43220 24-463): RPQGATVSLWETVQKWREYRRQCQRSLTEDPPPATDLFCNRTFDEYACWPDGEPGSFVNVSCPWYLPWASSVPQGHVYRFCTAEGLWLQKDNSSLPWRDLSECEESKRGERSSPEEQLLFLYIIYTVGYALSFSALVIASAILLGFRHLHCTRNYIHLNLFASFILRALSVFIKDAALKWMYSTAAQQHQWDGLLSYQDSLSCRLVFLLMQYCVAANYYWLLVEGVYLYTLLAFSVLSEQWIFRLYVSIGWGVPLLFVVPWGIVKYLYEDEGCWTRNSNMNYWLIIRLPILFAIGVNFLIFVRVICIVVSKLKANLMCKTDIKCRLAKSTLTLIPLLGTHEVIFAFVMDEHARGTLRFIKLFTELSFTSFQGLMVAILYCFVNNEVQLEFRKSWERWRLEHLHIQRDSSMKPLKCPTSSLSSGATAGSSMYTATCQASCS
T1 sequence (P47871 26-477): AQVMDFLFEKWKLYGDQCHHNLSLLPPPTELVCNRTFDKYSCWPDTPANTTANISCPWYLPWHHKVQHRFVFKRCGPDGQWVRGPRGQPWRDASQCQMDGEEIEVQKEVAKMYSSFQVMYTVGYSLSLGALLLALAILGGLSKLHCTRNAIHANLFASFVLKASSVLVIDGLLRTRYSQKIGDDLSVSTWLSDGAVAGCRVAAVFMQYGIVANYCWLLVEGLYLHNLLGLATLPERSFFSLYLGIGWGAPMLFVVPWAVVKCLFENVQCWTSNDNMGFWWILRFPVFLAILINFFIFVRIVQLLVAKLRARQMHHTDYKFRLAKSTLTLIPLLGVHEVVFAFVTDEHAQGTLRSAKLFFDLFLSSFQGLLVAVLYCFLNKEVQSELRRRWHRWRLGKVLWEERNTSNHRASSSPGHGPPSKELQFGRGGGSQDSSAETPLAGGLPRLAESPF

The EC50 is the concentration needed to bring the measured effect to its halfway point. Usually Emax stands for the greatest response seen or fitted, relative to the assay's reference. As to `CC[C@H](C)[C@H](NC(=O)[C@H](CC(C)C)NC(=O)[C@](C)(Cc1ccc(O)cc1)NC(=O)[C@@H](CCC(=O)O)NC(=O)[C@@H](NC(=O)[C@H](Cc1ccccc1)NC(=O)[C@H](CCC(=O)O)NC(=O)C(C)(C)NC(=O)[C@H](CCC(N)=O)NC(=O)[C@H](C)NC(=O)[C@H](CCCCNC(=O)COCCOCCNC(=O)COCCOCCNC(=O)CC[C@H](NC(=O)CCCCCCCCCCCCC(=O)O)C(=O)O)NC(=O)[C@H](CCCN)NC(=O)[C@H](CC(=O)O)NC(=O)[C@H](CC(C)C)NC(=O)[C@](C)(CC(C)C)NC(=O)[C@@H](NC(=O)[C@H](CO)NC(=O)C1(NC(=O)[C@H](CC(=O)O)NC(=O)[C@H](CO)NC(=O)[C@@H](NC(=O)[C@](C)(Cc2ccccc2F)NC(=O)[C@@H](NC(=O)CNC(=O)[C@H](CCC(=O)O)NC(=O)C(C)(C)NC(=O)[C@@H](N)Cc2ccc(O)cc2)[C@@H](C)O)[C@@H](C)O)CCCC1)[C@@H](C)CC)[C@@H](C)CC)C(=O)N[C@@H](CCC(=O)O)C(=O)NCC(=O)NCC(=O)N[C@@H](CCCCNC(=O)COCCOCCNC(=O)COCCOCCNC(=O)CC[C@H](NC(=O)CCCCCCCCCCCCC(=O)O)C(=O)O)C(=O)N[C@@H](CO)C(=O)N[C@@H](CO)C(=O)NCC(=O)N[C@@H](C)C(=O)N1CCC[C@H]1C(=O)N1CCC[C@H]1C(=O)N1CCC[C@H]1C(=O)N[C@@H](CO)C(N)=O` [Example 53], the EC50 on hGCGR (0.1% bovine casein and 1.0% human serum albumin, 37° C., read-out: hGCGR EC50, nM (SEM, n)) was > 9950 nM; on hGCGR (setting [1]), > 9950 nM; at hGLP-1R (setting [3]), 0.18 nM. Also, the Emax on hGLP-1R (HEK293, 0.1% bovine casein and 1.0% human serum albumin, percent of maximal response to GLP-1(7-36)NH2, read-out: hGLP-1R Emax, % ± SEM) stood at 89.3 ± 6.12%; on hGLP-1R (setting [2]), 89.9 ± 9.41%.

On to `CC[C@H](C)[C@H](NC(=O)[C@H](CC(C)C)NC(=O)[C@](C)(Cc1ccc(O)cc1)NC(=O)[C@H](CCCCNC(=O)[C@@H](N)CCCCNC(=O)CC[C@H](NC(=O)CCCCCCCCCCCCC(=O)O)C(=O)O)NC(=O)[C@@H](NC(=O)[C@H](Cc1ccccc1)NC(=O)[C@H](CCC(=O)O)NC(=O)C(C)(C)NC(=O)[C@H](CCC(N)=O)NC(=O)[C@H](C)NC(=O)[C@H](CCCCNC(=O)[C@@H](N)CCCCNC(=O)CC[C@H](NC(=O)CCCCCCCCCCCCC(=O)O)C(=O)O)NC(=O)[C@H](CCCN)NC(=O)[C@H](CC(=O)O)NC(=O)[C@H](CC(C)C)NC(=O)[C@](C)(CC(C)C)NC(=O)[C@@H](NC(=O)C(C)(C)NC(=O)[C@@H](NC(=O)[C@H](CC(=O)O)NC(=O)[C@H](CO)NC(=O)[C@@H](NC(=O)[C@](C)(Cc1ccccc1F)NC(=O)[C@@H](NC(=O)CNC(=O)[C@H](CCC(=O)O)NC(=O)C(C)(C)NC(=O)[C@@H](N)Cc1ccc(O)cc1)[C@@H](C)O)[C@@H](C)O)C(C)C)[C@@H](C)CC)[C@@H](C)CC)C(=O)N[C@@H](CCC(=O)O)C(=O)NCC(=O)NCC(=O)N1CCC[C@H]1C(=O)N[C@@H](CO)C(=O)N[C@@H](CO)C(=O)NCC(=O)N[C@@H](C)C(=O)N1CCC[C@H]1C(=O)N1CCC[C@H]1C(=O)N1CCC[C@H]1C(=O)N[C@@H](CO)C(N)=O` [Example 167], for which the EC50 is > 9950 nM on hGCGR (setting [4]) and 0.217 nM on hGLP-1R (hGLP-1R EC50, nM (SEM, n)). The Emax on hGLP-1R (HEK293, read-out: hGLP-1R Emax, % ± SEM, percent of maximal response to GLP-1(7-36)NH2, 0.1% bovine casein, arithmetic mean) was 91.4 ± 3.21%.

On to `CC[C@H](C)[C@H](NC(=O)[C@H](CC(C)C)NC(=O)[C@](C)(Cc1ccc(O)cc1)NC(=O)[C@@H](CCC(=O)O)NC(=O)[C@@H](NC(=O)[C@H](Cc1ccccc1)NC(=O)[C@H](CCC(=O)O)NC(=O)[C@H](CCCN)NC(=O)[C@H](CCC(N)=O)NC(=O)[C@H](C)NC(=O)[C@H](CCCCNC(=O)COCCOCCNC(=O)COCCOCCNC(=O)CC[C@H](NC(=O)CCCCCCCCCCCCC(=O)O)C(=O)O)NC(=O)[C@H](CCCN)NC(=O)[C@H](CC(=O)O)NC(=O)[C@H](CC(C)C)NC(=O)[C@](C)(CC(C)C)NC(=O)[C@@H](NC(=O)[C@H](CO)NC(=O)[C@H](Cc1ccncc1)NC(=O)[C@H](CC(=O)O)NC(=O)[C@H](CO)NC(=O)[C@@H](NC(=O)[C@](C)(Cc1ccccc1F)NC(=O)[C@@H](NC(=O)CNC(=O)[C@H](CCC(=O)O)NC(=O)C(C)(C)NC(=O)[C@@H](N)Cc1ccc(O)cc1)[C@@H](C)O)[C@@H](C)O)[C@@H](C)CC)[C@@H](C)CC)C(=O)N[C@@H](CCC(=O)O)C(=O)NCC(=O)NCC(=O)N[C@@H](CCCCNC(=O)COCCOCCNC(=O)COCCOCCNC(=O)CC[C@H](NC(=O)CCCCCCCCCCCCC(=O)O)C(=O)O)C(=O)N[C@@H](CO)C(=O)N[C@@H](CO)C(=O)NCC(=O)N[C@@H](C)C(=O)N1CCC[C@H]1C(=O)N1CCC[C@H]1C(=O)N1CCC[C@H]1C(=O)N[C@@H](CO)C(N)=O` [Example 149], for which the EC50 is > 9950 nM on hGCGR (setting [1]) and 1.5 nM on hGLP-1R (setting [3]). Also, on hGLP-1R (setting [2]), the Emax came out at 98.3 ± 0.579%.

With `CC[C@H](C)[C@H](NC(=O)[C@H](CCCN)NC(=O)[C@H](CC(=O)O)NC(=O)[C@H](CC(C)C)NC(=O)[C@](C)(CC(C)C)NC(=O)[C@@H](NC(=O)[C@H](CO)NC(=O)[C@H](CCCCNC(=O)COCCOCCNC(=O)COCCOCCNC(=O)CC[C@H](NC(=O)CCCCCCCCCCCCC(=O)O)C(=O)O)NC(=O)[C@H](CC(=O)O)NC(=O)[C@H](CO)NC(=O)[C@@H](NC(=O)[C@](C)(Cc1ccccc1F)NC(=O)[C@@H](NC(=O)CNC(=O)[C@H](CCC(=O)O)NC(=O)C(C)(C)NC(=O)[C@@H](N)Cc1ccc(O)cc1)[C@@H](C)O)[C@@H](C)O)[C@@H](C)CC)C(=O)N[C@@H](C)C(=O)N[C@@H](CCC(N)=O)C(=O)NC(C)(C)C(=O)N[C@@H](CCCCNC(=O)COCCOCCNC(=O)COCCOCCNC(=O)CC[C@H](NC(=O)CCCCCCCCCCCCC(=O)O)C(=O)O)C(=O)N[C@@H](Cc1ccccc1)C(=O)N[C@H](C(=O)N[C@H](CCC(=O)O)C(=O)N[C@@](C)(Cc1ccc(O)cc1)C(=O)N[C@@H](CC(C)C)C(=O)N[C@H](C(=O)N[C@@H](CCC(=O)O)C(=O)NCC(=O)NCC(=O)N1CCC[C@H]1C(=O)N[C@@H](CO)C(=O)N[C@@H](CO)C(=O)NCC(=O)N[C@@H](C)C(=O)N1CCC[C@H]1C(=O)N1CCC[C@H]1C(=O)N1CCC[C@H]1C(=O)N[C@@H](CO)C(N)=O)[C@@H](C)CC)[C@@H](C)CC` [Example 105], the EC50 on hGCGR (setting [1]) was > 9950 nM; at hGLP-1R (setting [3]) it was 0.52 nM.

On to `CC[C@H](C)[C@H](NC(=O)[C@H](CC(C)C)NC(=O)[C@](C)(Cc1ccc(O)cc1)NC(=O)[C@H](CCCCNC(=O)COCCOCCNC(=O)COCCOCCNC(=O)CC[C@H](NC(=O)CCCCCCCCCCCCC(=O)O)C(=O)O)NC(=O)[C@@H](NC(=O)[C@](C)(Cc1ccccc1)NC(=O)[C@H](CCC(=O)O)NC(=O)C(C)(C)NC(=O)[C@H](CCC(N)=O)NC(=O)[C@H](C)NC(=O)[C@H](CCCCNC(=O)COCCOCCNC(=O)COCCOCCNC(=O)CC[C@H](NC(=O)CCCCCCCCCCCCC(=O)O)C(=O)O)NC(=O)[C@H](CCCN)NC(=O)[C@H](CC(=O)O)NC(=O)[C@H](CC(C)C)NC(=O)[C@](C)(CC(C)C)NC(=O)[C@@H](NC(=O)[C@H](CO)NC(=O)C1(NC(=O)[C@H](CC(=O)O)NC(=O)[C@H](CO)NC(=O)[C@@H](NC(=O)[C@](C)(Cc2ccccc2F)NC(=O)[C@@H](NC(=O)CNC(=O)[C@H](CCC(=O)O)NC(=O)C(C)(C)NC(=O)[C@@H](N)Cc2ccc(O)cc2)[C@@H](C)O)[C@@H](C)O)CCCC1)[C@@H](C)CC)[C@@H](C)CC)C(=O)N[C@@H](CCC(=O)O)C(=O)NCC(=O)NCC(=O)N1CCC[C@H]1C(=O)N[C@@H](CO)C(=O)N[C@@H](CO)C(=O)NCC(=O)N[C@@H](C)C(=O)N1CCC[C@H]1C(=O)N1CCC[C@H]1C(=O)N1CCC[C@H]1C(=O)N[C@@H](CO)C(N)=O` [Example 120], for which the EC50 on hGCGR (setting [4]) was > 9950 nM; on hGLP-1R (hGLP-1R EC50, nM (SEM, n)), 1.43 nM.
